Where a name gives a salt, the structure may show the parent alone. Read-outs that look alike come from different tables or passages of the source.
Biological target: MetJ dimer–DNA complex (F-metC) (Escherichia coli, UniProt P0A8U6)
Test: Fluorescence anisotropy assay: MetJ titrated into F-metC DNA and ligand, MetJ dimer–DNA complex formation
Format: binding
Details: for EC50: F-metC 10 nM, read-out: EC50, concentration of MetJ monomer required to promote half-maximal formation of its complex with the F-metC DNA; for Fold-improvement over monovalent control 11: unquaternised bivalent ligand 1 mM vs 11 at 2 mM; for Fold-improvement over monovalent control 4: ligands 2 mM
Source text: A fluorescence anisotropy-based binding assay was used to compare the relative ability of SAM analogues to promote MetJ dimer–DNA complex formation. Since SAM has low affinity for MetJ in the absence of DNA,[8,13] measurements were made in the presence of the DNA fragment F-metC, a fluorescently-labeled analogue of the shortest naturally occurring operator sequence, metC.[14] Titration of MetJ into a solution containing fixed concentrations of F-metC and ligand allows the change in anisotropy related to ternary complex formation to be measured (Fig. 5).
Figure 5 Cartoon illustrating the fluorescence anisotropy assay. The SAM molecules promote the formation of a SAM–F-metC–protein complex, with two MetJ dimers bound to the 18 base-pair DNA duplex.
The half-maximal concentration of MetJ, EC50, required to promote complex formation was determined for each ligand. […] The monovalent ligands 11 and 12 (2 mM) and the bivalent ligands 9 and 10 (1 mM) all promoted the formation of the MetJ–DNA complex (Table 1). […] The unquaternised bivalent ligands 9a–e (1 mM) promoted complex formation up to about threefold more effectively than the corresponding monovalent analogue 11. Similarly, the quaternised bivalent ligands 10a and 10b promoted, respectively, complex formation 2.4- and 3.6-fold more effectively than the quaternised monovalent analogue 12.
Analysis of novel SAM analogues binding to MetJ in the presence of operator DNA was carried out using fluorescence anisotropy. Fluorescence anisotropy experiments were performed on a Spex Fluorolog Tau spectrofluorometer (HORIBA Jobin Yvon) controlled by Datamax software. The excitation and emission wavelengths were set to 488 nm and 517 nm respectively. Slit widths were set to 5 nm and all experiments were carried out at 19 °C. The detector integration time was 5 seconds and three readings were taken of each sample to obtain an average anisotropy. Free anisotropy values were 0.051-0.060. Increase in fluorescence anisotropy was observed upon titration of MetJ into a solution of F-metC (10 nM) with and without ligand ([…]) in TK buffer pH 7.6 (50 mM Trizma hydrochloride pH 7.6, 100 mM KCl) with a total starting volume of 200 µL. […] The final DMSO concentration was 2% or less. After each addition, the sample was mixed with a pipette and left to equilibrate for five minutes before the fluorescence anisotropy readings were acquired. The intensity of linear and perpendicular light, compared to the excitation light is measured experimentally and the anisotropy was calculated using the following equation:‖
The data was fitted to a sigmoidal growth logistic model using the following equation: […]
Where A1 refers to the initial value, A2 refers to the final value, x0 refers to the centre and p is a value relating to the slope of the transition. Errors refer the standard deviation of three titration repeats. An arbitrary weighting function with the following equation was employed: […]

[1] = bivalent ligand 1 mM, DMSO 2%, average of three titrations
[2] = quaternised ligands 2 mM, average of three titrations
[3] = unquaternised ligands 2 mM, average of three titrations

Chain of MetJ dimer–DNA complex (F-metC) (P0A8U6 2-105, one chain of several): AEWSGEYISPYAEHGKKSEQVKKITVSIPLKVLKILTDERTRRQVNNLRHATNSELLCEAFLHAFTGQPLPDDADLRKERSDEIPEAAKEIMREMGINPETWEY

## C[N+](C)(CC[C@H](N)C(=O)NCc1ccc(CNC(=O)[C@@H](N)CC[N+](C)(C)C[C@H]2O[C@@H](n3cnc4c(N)ncnc43)[C@H](O)[C@@H]2O)cc1)C[C@H]1O[C@@H](n2cnc3c(N)ncnc32)[C@H](O)[C@@H]1O [Compound 10a, N,N′-(1,4-Phenylenebismethylene)bis{(2′S)-2′-amino-4′-[5′′-deoxy-5′′-(dimethylamino)-adenosyl]butanamide}iodide tetratrifluoroacetic acid salt]
[1]
  EC50: 15 ± 5 nM

## C[N+](C)(CCCC(=O)NCCCNC(=O)CCC[N+](C)(C)C[C@H]1O[C@@H](n2cnc3c(N)ncnc32)[C@H](O)[C@@H]1O)C[C@H]1O[C@@H](n2cnc3c(N)ncnc32)[C@H](O)[C@@H]1O.[I-].[I-] [Compound 19b, N,N′-Dimethyl-N,N′-di-[5′-deoxy-5′-N-methyl-N′-(4-butyryl)-adenosine]-1,3-diaminopropane diiodide]
Quaternised ligands 2 mM
  Fold-improvement over monovalent control 5: 1.4-fold
[2]
  EC50: 108 ± 3 nM

## C[S+](CC[C@H](N)C(=O)[O-])C[C@H]1O[C@@H](n2cnc3c(N)ncnc32)[C@H](O)[C@@H]1O (stereo partly shown) [SAM, 1, S-Adenosylmethionine]
SAM, ligand concentration not given, DMSO 2%
  EC50: 17.3 ± 0.3 nM

## CN(CC[C@H](N)C(=O)NCc1ccc(CNC(=O)[C@@H](N)CCN(C)C[C@H]2O[C@@H](n3cnc4c(N)ncnc43)[C@H](O)[C@@H]2O)cc1)C[C@H]1O[C@@H](n2cnc3c(N)ncnc32)[C@H](O)[C@@H]1O [Compound 9a, N,N′-(1,4-Phenylenebismethylene)bis{(2′S)-2′-amino-4′-[5′′-deoxy-5′′-(methylamino)-adenosyl]butanamide}]
[1]
  EC50: 61 ± 3 nM
  Fold-improvement over monovalent control 11: 2.0-fold

## CN(CC[C@H](N)C(=O)NCc1cccc(-c2cccc(CNC(=O)[C@@H](N)CCN(C)C[C@H]3O[C@@H](n4cnc5c(N)ncnc54)[C@H](O)[C@@H]3O)c2)c1)C[C@H]1O[C@@H](n2cnc3c(N)ncnc32)[C@H](O)[C@@H]1O [Compound 9d, N,N′-(Biphenyl-3,3′-diylybismethylene)bis{(2′′S)-2′′-amino-4′′-[5′′′-deoxy-5′′′-(methylamino)-adenosyl]butanamide}]
[1]
  EC50: 75 ± 4 nM
  Fold-improvement over monovalent control 11: 1.6-fold

## C[N+](C)(CC[C@H](N)C(=O)NCc1cccc(CNC(=O)[C@@H](N)CC[N+](C)(C)C[C@H]2O[C@@H](n3cnc4c(N)ncnc43)[C@H](O)[C@@H]2O)c1)C[C@H]1O[C@@H](n2cnc3c(N)ncnc32)[C@H](O)[C@@H]1O [Compound 10b, N,N′-(1,3-Phenylenebismethylene)bis{(2′S)-2′-amino-4′-[5′′-deoxy-5′′-(dimethylamino)-adenosyl]butanamide}iodide tetratrifluoroacetic acid salt]
[1]
  EC50: 10 ± 1 nM

## C[N+](C)(CCCC(=O)NCCCCCCNC(=O)CCC[N+](C)(C)C[C@H]1O[C@@H](n2cnc3c(N)ncnc32)[C@H](O)[C@@H]1O)C[C@H]1O[C@@H](n2cnc3c(N)ncnc32)[C@H](O)[C@@H]1O.[I-].[I-] [Compound 19d, N,N′-Dimethyl-N,N′-di-[5′-deoxy-5′-N-methyl-N′-(4-butyryl)-adenosine]-1,6-diaminohexane diiodide]
Quaternised ligands 2 mM
  Fold-improvement over monovalent control 5: 2.9-fold
[2]
  EC50: 51 ± 2 nM

## CN(CCCC(=O)NCCCCNC(=O)CCCN(C)C[C@H]1O[C@@H](n2cnc3c(N)ncnc32)[C@H](O)[C@@H]1O)C[C@H]1O[C@@H](n2cnc3c(N)ncnc32)[C@H](O)[C@@H]1O [Compound 18c, N,N′-Di-[5′-deoxy-5′-N-methyl-N′-(4-butyryl)-adenosine]-1,4-diaminobutane]
  Fold-improvement over monovalent control 4: 4.5-fold
[3]
  EC50: 220 ± 20 nM

## CCCNC(=O)CCC[N+](C)(C)C[C@H]1O[C@@H](n2cnc3c(N)ncnc32)[C@H](O)[C@@H]1O [Compound 5, reference compound]
[2]
  EC50: 150 ± 10 nM

## CN(CCCC(=O)NCCCNC(=O)CCCN(C)C[C@H]1O[C@@H](n2cnc3c(N)ncnc32)[C@H](O)[C@@H]1O)C[C@H]1O[C@@H](n2cnc3c(N)ncnc32)[C@H](O)[C@@H]1O [Compound 18b, N,N′-Di-[5′-deoxy-5′-N-methyl-N′-(4-butyryl)]-1,3-diaminopropane]
  Fold-improvement over monovalent control 4: 3.1-fold
[3]
  EC50: 320 ± 40 nM

From publication PMC3267017, “Design, synthesis and in vitro evaluation of novel bivalent S-adenosylmethionine analogues” (Bioorganic & Medicinal Chemistry Letters, 2012)
